Assay results: patent US4027005A, “Diagnostic agents” (New England Nuclear Corporation, priority 1974, dated 1977)
Like-named read-outs stand apart in the source and are kept apart here.

Columns and labels:
[1] = cited from earlier work
[2] = Comparative one hour rat organ distribution and organ uptake contrast ratios; type: in vivo; conditions: i.v.; for Kidney/G.I. organ uptake contrast ratio / Kidney/liver organ uptake contrast ratio / Kidney/blood organ uptake contrast ratio: activity per gram; for Kidney/blood organ uptake contrast ratio: 60 min; for Blood, organ distribution / G.I., organ distribution / Kidney, organ distribution / Liver, organ distribution: decay corrected, average of at least two animals
Protocol: Each of the foregoing renal scanning agents is aseptically intravenously injected (0.25 ml containing about 3-5 mCi) into adult rats. One hour later the rats are sacrificed, and the blood collected, weighed and counted. The organs of interest, e.g. the kidney, the liver, and the gastrointestinal tract, are individually weighed and the radioactivity contained therein counted. The amount of radioactivity injected is determined by counting the radioactivity in the syringe before and after injection. The organ distribution values are reported as the percent of the activity injected which is observed in the organ, corrected for the radioactive decay of technetium. The organ uptake contrast ratios are determined by determining the relative activity contained per gram of the organs compared.

[3] = Acute toxicity in mice, intravenous; type: in vivo
[4] = Sub-acute toxicity in dogs; type: in vivo; conditions: 19 mg/kg per day for 14 days
[5] = Sub-acute toxicity in mice; type: in vivo; conditions: mice, 800, 400 and 80 mg/kg per day for 15 days
[6] = Distribution data in rats of the glucoheptonate agent; conditions: within one hour post injection
[7] = Urinary excretion in humans; conditions: within the first hour after injection, 60 min
[8] = test system: infarcted myocardial tissue; experiment: Infarction tests: accumulation in infarcted myocardial tissue; type: in vivo, rat; conditions: for ratio B: activity per gram of infarcted tissue to activity per gram in the blood: 60 min
Protocol: In each case a myocardial infarct is produced in adult rats by surgery. In Example 9, doses of about 3-5 mCi each of the glucoheptonate and tetracycline agents respectively are injected three hours after infarct was induced. The animals are sacrificed one hour after injection and the heart removed. The infarcted tissue, which is visibly distinguishable from normal myocardial tissue, was excised, weighed and counted. The normal myocardial tissue was also weighed and its activity counted and the results are reported as the ratio of the activity per gram of the infarcted tissue to the activity per gram of the normal tissue (A), and the ratio of the activity per gram of the infarcted tissue to activity per gram in the blood (B). Example 10 reports similar results, the difference being that in that example the radionuclides were injected into the live rats eighteen hours after the infarct was induced, rather than three hours.

[9] = Example 9: rat, injected three hours after infarct, sacrificed one hour after injection
[10] = Example 10: rat, injected eighteen hours after infarct

| Compound | Kidney/G.I. organ uptake contrast ratio [2] | Kidney/liver organ uptake contrast ratio [2] | Kidney/blood organ uptake contrast ratio [2] | Blood, organ distribution [2] | G.I., organ distribution [2] | Kidney, organ distribution [2] | Liver, organ distribution [2] | other results |
| --- | --- | --- | --- | --- | --- | --- | --- | --- |
| O=C(O)CNC(=O)c1ccccc1[131I] [131 I-iodohippuran] | – | – | – | – | – | – | – | accumulation, retention or elimination of prior agents (in words) ([1]; prior art): predominantly eliminated through active secretion by tubular cells |
| O=C(O)Cn1cc([131I])c(=O)c([131I])c1.OCCNCCO [131 I-iodopyracet] | – | – | – | – | – | – | – | accumulation, retention or elimination of prior agents (in words) ([1]; in vivo): simultaneous accumulation in surrounding tissue, especially the liver |
| O=C(O)[C@H](O)[C@@H](O)[C@H](O[C@@H]1O[C@H](CO)[C@H](O)[C@H](O)[C@H]1O)[C@H](O)CO [Example 2] | 57 | 102 | 82 | 1.8% of the activity inject | 6.2% of the activity inject | 23% of the activity inject | 1.3% of the activity inject | – |
| O=C(O)[C@H](O)[C@@H](O)[C@H](O)[C@H](O)CO [Example 5] | 55 | 50 | 40 | 2.3% of the activity inject | 4.8% of the activity inject | 16% of the activity inject | 1.4% of the activity inject | – |
| stannous glucoheptonate | – | – | – | – | – | – | – | acute toxicity level (LD50) [3]: about 1500 mg/kg; sub-acute toxicity [4]: no untoward effects; sub-acute toxicity [5]: no ill effects |
| technetium-99m-stannous-DTPA [Example 7] | 65 | 77 | 32 | 1.0% of the activity inject | 1.1% of the activity inject | 5.0% of the activity inject | 0.3% of the activity inject | Kidney/blood organ uptake contrast ratio ([2]; listed as DTPA): 22 |
| technetium-99m-stannous-glucoheptonate [Example 1] | 44 | 115 | 105 | 1.1% of the activity inject | 5.0% of the activity inject | 18% of the activity inject | 0.7% of the activity inject | total blood activity [6]: less than 2%; injected dose excreted in the urine [7]: about 25%; ratio A: activity per gram of infarcted tissue to activity per gram of normal tissue [8, 9]: 10.3; ratio B: activity per gram of infarcted tissue to activity per gram in the blood [8, 9]: 4.5; ratio A: activity per gram of infarcted tissue to activity per gram of normal tissue [8, 10]: 6.7; ratio B: activity per gram of infarcted tissue to activity per gram in the blood [8, 10]: 3.2; preferential accumulation in infarcted tissue (in words) ([8]; Examples 9 and 10): more effective in preferentially accumulating in infarcted, rather than normal, tissue than the tetracycline infarct agent |
| technetium-99m-stannous-tetracycline [Tetracycline complex, reference compound] | – | – | – | – | – | – | – | ratio A: activity per gram of infarcted tissue to activity per gram of normal tissue [8, 9]: 5.9; ratio A: activity per gram of infarcted tissue to activity per gram of normal tissue [8, 10]: 3.7 |
